Experimental data from PubChem BioAssay (NCI).
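GI50 = concentration required for 50% inhibition of growth. Definition used: TGI = concentration required for complete inhibition of growth.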

Key:
Assay in all cases: DTP human tumour cell line panel, 384-well format
[1] = tested on: OVCAR-4 ovarian
[2] = tested on: HCC-2998 colon
[3] = tested on: NCI-H23 lung
[4] = tested on: SN12C renal
[5] = tested on: UACC-62 melanoma
[6] = tested on: PC-3 prostate
[7] = tested on: SK-OV-3 ovarian
[8] = tested on: T-47D breast
[9] = tested on: KM12 colon
[10] = tested on: HCT-116 colon
[11] = tested on: NCI-H522 lung
[12] = tested on: SK-MEL-2 melanoma
[13] = tested on: A498 renal
[14] = tested on: SK-MEL-28 melanoma
[15] = tested on: RXF 393 renal
[16] = tested on: NCI/ADR-RES ovarian
[17] = tested on: NCI-H460 NSCLC
[18] = tested on: NCI-H322M lung
[19] = tested on: MOLT-4 leukemia
[20] = tested on: MDA-MB-435 melanoma
[21] = tested on: ACHN renal
[22] = tested on: 786-0 renal
[23] = tested on: SF-539 CNS
[24] = tested on: CCRF-CEM leukemia
[25] = tested on: A549 NSCLC
[26] = tested on: CAKI-1 renal
[27] = tested on: SW-620 colon
[28] = tested on: TK-10 renal
[29] = tested on: SF-268 CNS

`COc1cc2c(Oc3ccc(-c4cnc(Nc5ccc(F)cc5)n(C)c4=O)cc3F)ccnc2cc1OCCCN1CCOCC1` showed a GI50 [1] of 1110 nM, a TGI [1] of 2320 nM and a GI50 [2] of 1170 nM. It also gave a TGI [2] of 2400 nM, a GI50 [3] of 237 nM and a TGI [3] of 1350 nM. For the same molecule, the GI50 [4] was 247 nM, the TGI [4] was 1290 nM and the GI50 [5] was 288 nM. For the same molecule, the TGI [5] was 1250 nM, the GI50 [6] was 1520 nM and the TGI [6] was 2860 nM. It also gave a GI50 [7] of 680 nM, a TGI [7] of 1990 nM and a GI50 [8] of 1070 nM. For the same molecule, the TGI [8] was 2260 nM, the TGI [9] was 308 nM and the GI50 [10] was 704 nM. It also gave a TGI [10] of 2000 nM, a GI50 [11] of 1040 nM and a TGI [11] of 2210 nM. For the same molecule, the GI50 [12] was 495 nM, the TGI [12] was 1510 nM and the GI50 [13] was 1240 nM. For the same molecule, the TGI [13] was 2500 nM, the GI50 [14] was 258 nM and the TGI [14] was 923 nM. For the same molecule, the GI50 [15] was 189 nM, the TGI [15] was 541 nM and the GI50 [16] was 1180 nM. For the same molecule, the TGI [16] was 2410 nM, the GI50 [17] was 526 nM and the TGI [17] was 1790 nM. For the same molecule, the GI50 [18] was 761 nM, the TGI [18] was 2020 nM and the GI50 [19] was 150 nM. The TGI [19] was 369 nM, the GI50 [20] was 384 nM and the TGI [20] was 1390 nM. The GI50 [21] was 313 nM, the TGI [21] was 1460 nM and the GI50 [22] was 1240 nM. It also gave a TGI [22] of 2490 nM, a GI50 [23] of 257 nM and a TGI [23] of 1150 nM. The GI50 [24] was 1070 nM, the TGI [24] was 2260 nM and the GI50 [25] was 572 nM. For the same molecule, the TGI [25] was 1800 nM, the GI50 [26] was 368 nM and the TGI [26] was 1410 nM. For the same molecule, the GI50 [27] was 509 nM, the TGI [27] was 1880 nM and the GI50 [28] was 1160 nM. The TGI [28] was 2400 nM, the GI50 [29] was 1160 nM and the TGI [29] was 2390 nM.
